Laboratory results: patent publication US20210000912A1, “Compositions And Methods For Prophylaxis Or Treatment Of Pain” (Interk Peptide Therapeutics Limited, priority 2017, published 2021)

What was measured:
PKG1α (h) = target: T1, PKG1α (h) (Homo sapiens, UniProt Q13976); assay: PKG1α kinase activity assay, cell free; assay type: biochemical
T1 construct: purchased Eurofins Pharma Discovery Services UK Ltd (contract assay service)
T1 sequence (Q13976 1-671): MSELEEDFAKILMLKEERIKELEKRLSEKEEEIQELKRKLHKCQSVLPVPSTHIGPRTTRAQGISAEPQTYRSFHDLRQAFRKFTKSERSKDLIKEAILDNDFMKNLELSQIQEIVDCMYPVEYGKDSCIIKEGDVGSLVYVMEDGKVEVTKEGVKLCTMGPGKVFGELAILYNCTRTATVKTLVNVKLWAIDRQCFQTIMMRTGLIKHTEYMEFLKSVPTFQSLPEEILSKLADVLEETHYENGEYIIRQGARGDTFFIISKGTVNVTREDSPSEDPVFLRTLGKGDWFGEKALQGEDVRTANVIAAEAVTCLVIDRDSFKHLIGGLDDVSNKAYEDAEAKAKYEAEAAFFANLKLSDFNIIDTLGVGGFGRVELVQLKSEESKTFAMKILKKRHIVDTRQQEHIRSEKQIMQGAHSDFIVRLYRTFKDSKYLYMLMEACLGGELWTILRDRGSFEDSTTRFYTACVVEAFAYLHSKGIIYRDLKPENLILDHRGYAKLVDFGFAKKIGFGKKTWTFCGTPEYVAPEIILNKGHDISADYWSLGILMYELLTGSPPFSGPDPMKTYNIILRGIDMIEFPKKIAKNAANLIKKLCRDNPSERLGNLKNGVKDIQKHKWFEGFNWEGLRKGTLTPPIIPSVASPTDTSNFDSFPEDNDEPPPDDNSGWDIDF
Experimental: (§1) The capacity of test peptides to inhibit the activity of the kinases PKG1α, PKG1β, and Src family kinases in a cell free assay was assessed. The test peptides were amidated at their C-terminal end (indicated by “—NH2”) unless otherwise noted. Kinase activity assays were conducted by Eurofins Pharma Discovery Services UK Ltd (Dundee Technology Park, Dundee, United Kingdom) and Reaction Biology Corp. (Malvern, Pa., USA).
(§2) All test peptides are prepared to 50× final assay concentration in 100% DMSO. This working stock of the test compound is added to assay wells as the first component in the reaction, followed by the remaining components of the respective assay protocols described below. There is no pre-incubation step between the test peptide and the kinase prior to initiation of the reaction. The kinases are diluted in buffer (20 mM MOPS, 1 mM EDTA, 0.01% Brij-35, 5% Glycerol, 0.1% β-mercaptoethanol, 1 mg/mL BSA) prior to addition to the reaction mix.
(§3) Positive control wells contain all components of the reaction, except the test peptide of interest. However, DMSO (at a final concentration of 2%) is included in positive control wells to control for solvent effects. Negative control wells contain all components of the reaction, with a reference inhibitor (staurosporine) replacing the test peptide. This abolishes kinase activity and establishes a base-line (0% kinase activity). Kinase assay protocols (Eurofins Pharma Discovery Services UK Ltd, Dundee Technology Park, Dundee, United Kingdom) are described below. Of the Src family kinases, only the assay protocol for c-Src is shown.
(§4) PKG1α (h) is incubated with 8 mM MOPS pH 7.0, 0.2 mM EDTA, 10 μM cGMP, 200 μM peptide RRRLSFAEPG, 10 mM magnesium acetate and [γ-^33P]-ATP (specific activity approx. 500 cpm/pmol, concentration as required). The reaction is initiated by the addition of the MgATP mix. After incubation for 40 minutes at room temperature, the reaction is stopped by the addition of 3% phosphoric acid solution. A 10 μL aliquot of the reaction is then spotted onto a P30 filtermat and washed three times for 5 mins in 75 mM phosphoric acid and once in methanol prior to drying and scintillation counting.

c-Src (h) = target: T2, c-Src (h) (Homo sapiens, UniProt P12931); assay: c-Src kinase activity assay, cell free; assay type: biochemical
T2 construct: purchased Eurofins Pharma Discovery Services UK Ltd (contract assay service)
Experimental: as §1, §2, §3
as §4, with “c-Src (h)” for “PKG1α (h)”, “EDTA, 250” for “EDTA, 10”, “μM KVEKIGEGTYGVVYK (Cdc2 peptide),” for “μM cGMP, 200 μM peptide RRRLSFAEPG,”, “mM MgAcetate” for “mM magnesium acetate”, “5 minutes” for “5 mins”

CFA-injected mice = assay: Grip strength testing in CFA study; assay type: in vivo, C57Bl/6 mice
Experimental: Forepaw grip strength was determined using a grip strength meter (DFIS-2 series digital force gauge, Columbus Instruments, Columbus, Ohio). The animals' forelimbs were placed on a horizontal bar connected to a force gauge. The animal was the gently pulled away from the bar and the peak force required for a release was recorded. Each mouse was tested 3 times, with a 1 min inter-trial interval (Martinez-Huenchullan, S. F., et al., “Utility and reliability of non-invasive muscle function tests in high-fat-fed mice”. Experimental Physiology, 2017. 102(7): p. 773-778). The average peak tension (g), and tension normalised to body weight were compared.

T2 sequence (P12931 whole entry): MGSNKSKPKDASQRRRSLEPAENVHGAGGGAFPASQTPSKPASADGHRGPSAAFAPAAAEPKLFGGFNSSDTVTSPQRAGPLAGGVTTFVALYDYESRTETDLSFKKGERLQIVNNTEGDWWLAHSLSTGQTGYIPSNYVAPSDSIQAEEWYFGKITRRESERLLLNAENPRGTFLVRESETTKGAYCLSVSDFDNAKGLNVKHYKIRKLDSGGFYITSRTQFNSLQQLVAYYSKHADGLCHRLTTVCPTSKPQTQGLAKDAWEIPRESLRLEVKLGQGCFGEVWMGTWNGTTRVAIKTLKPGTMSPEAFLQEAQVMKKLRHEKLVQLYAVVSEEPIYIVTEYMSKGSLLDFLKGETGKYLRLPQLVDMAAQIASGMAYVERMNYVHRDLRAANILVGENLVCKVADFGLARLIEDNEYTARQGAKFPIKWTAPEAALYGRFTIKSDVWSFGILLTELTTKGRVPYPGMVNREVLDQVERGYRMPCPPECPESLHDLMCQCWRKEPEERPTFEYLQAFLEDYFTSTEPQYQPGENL

For `N=C(N)NCCC[C@H](NC(=O)[C@H](CCCNC(=N)N)NC(=O)[C@H](CCCNC(=N)N)NC(=O)[C@H](CCCNC(=N)N)NC(=O)[C@H](CCCNC(=N)N)NC(=O)[C@H](CCCNC(=N)N)NC(=O)[C@H](CCCNC(=N)N)NC(=O)[C@H](CCCNC(=N)N)NC(=O)[C@H](CCCNC(=N)N)NC(=O)[C@H](CCCNC(=N)N)NC(=O)[C@H](CCCNC(=N)N)NC(=O)[C@H](CCCNC(=N)N)NC(=O)[C@H](CCCNC(=N)N)NC(=O)[C@@H](N)CCCNC(=N)N)C(N)=O` [IK01400, RRRRRRRRRRRRRR-NH2], the IC50 (PKG1α (h)) was 6.7 nM, the “PKG1α IC50” value (PKG1α (h); cell free, 10 μM cGMP, 40 minutes at room temperature) was “single digit nanomolar range” and the IC50 (c-Src (h)) was 5.5 nM. For the same compound, the alertness of animals (CFA-injected mice; all time points) was “alert at all time points” and the “grip strength compared to vehicle control” value (CFA-injected mice; intra-peritoneal, CFA study) was “no difference”.
